Experimental data taken from ChEMBL document CHEMBL3774345, “Synthesis of new diarylamides with pyrimidinyl pyridine scaffold and evaluation of their anti-proliferative effect on cancer cell lines” (Bioorg Med Chem Lett, 2016).

What was measured:
Type in all cases: functional
[1] = Cytotoxicity against human RXF393 cells assessed as cell growth at 10 uM after 24 hrs by SRB assay; conditions: RXF 393, 24 h, read-out: Activity
[2] = Cytotoxicity against human DU145 cells assessed as cell growth at 10 uM after 24 hrs by SRB assay; conditions: DU-145, 24 h, read-out: Activity
[3] = Cytotoxicity against human Hs 578T cells assessed as cell growth at 10 uM after 24 hrs by SRB assay; conditions: read-out: Activity
[4] = Cytotoxicity against human HOP62 cells assessed as cell growth at 10^-6 M after 24 hrs by SRB assay; conditions: HOP-62, 24 h, read-out: Activity
SK-MEL-5 = test: Cytotoxicity against human SK-MEL-5 cells assessed as cell growth at 10 uM after 24 hrs by SRB assay; conditions: SK-MEL-5, 24 h, read-out: Activity
HT-29 = test: Cytotoxicity against human HT-29 cells assessed as cell growth at 10^-4 M after 24 hrs by SRB assay; conditions: HT-29, 24 h, read-out: Activity
[5] = Cytotoxicity against human HL-60(TB) cells assessed as cell growth at 10 uM after 24 hrs by SRB assay; conditions: HL-60, 24 h, read-out: Activity
A498 = test: Cytotoxicity against human A498 cells assessed as cell growth at 10^-6 M after 24 hrs by SRB assay; conditions: A498, 24 h, read-out: Activity
[6] = Cytotoxicity against human UACC257 cells assessed as cell growth at 10^-7 M after 24 hrs by SRB assay; conditions: UACC-257, 24 h, read-out: Activity
[7] = Cytotoxicity against human OVCAR5 cells assessed as cell growth at 10 uM after 24 hrs by SRB assay; conditions: OVCAR-5, 24 h, read-out: Activity
SN12C = test: Cytotoxicity against human SN12C cells assessed as cell growth at 10 uM after 24 hrs by SRB assay; conditions: read-out: Activity
[8] = Cytotoxicity against human SF295 cells assessed as cell growth at 10 uM after 24 hrs by SRB assay; conditions: SF-295, 24 h, read-out: Activity
NCI-H322M = test: Cytotoxicity against human NCI-H322M cells assessed as cell growth at 10 uM after 24 hrs by SRB assay; conditions: read-out: Activity
[9] = Cytotoxicity against human UO31 cells assessed as cell growth at 10 uM after 24 hrs by SRB assay; conditions: UO-31, 24 h, read-out: Activity
[10] = Cytotoxicity against human PC3 cells assessed as cell growth at 10^-8 M after 24 hrs by SRB assay; conditions: PC-3, 24 h, read-out: Activity
EKVX = test: Cytotoxicity against human EKVX cells assessed as cell growth at 10 uM after 24 hrs by SRB assay; conditions: read-out: Activity
T47D = test: Cytotoxicity against human T47D cells assessed as cell growth at 10 uM after 24 hrs by SRB assay; conditions: read-out: Activity
ACHN = test: Cytotoxicity against human ACHN cells assessed as cell growth at 10 uM after 24 hrs by SRB assay; conditions: read-out: Activity
[11] = Cytotoxicity against human SKOV3 cells assessed as cell growth at 10 uM after 24 hrs by SRB assay; conditions: SK-OV-3, 24 h, read-out: Activity
SR = test: Cytotoxicity against human SR cells assessed as cell growth at 10 uM after 24 hrs by SRB assay; conditions: read-out: Activity
Malme-3M = test: Cytotoxicity against human MALME-3M cells assessed as cell growth at 10 uM after 24 hrs by SRB assay; conditions: read-out: Activity
[12] = Cytotoxicity against human SF268 cells assessed as cell growth at 10 uM after 24 hrs by SRB assay; conditions: SF-268, 24 h, read-out: Activity
[13] = Cytotoxicity against human SNB75 cells assessed as cell growth at 10 uM after 24 hrs by SRB assay; conditions: SNB-75, 24 h, read-out: Activity
[14] = Cytotoxicity against human SW620 cells assessed as cell growth at 10^-8 M after 24 hrs by SRB assay; conditions: SW-620, 24 h, read-out: Activity
[15] = Cytotoxicity against human OVCAR3 cells assessed as cell growth at 10^-7 M after 24 hrs by SRB assay; conditions: OVCAR-3, 24 h, read-out: Activity
[16] = Cytotoxicity against human RPMI8226 cells assessed as cell growth at 10 uM after 24 hrs by SRB assay; conditions: RPMI-8226, 24 h, read-out: Activity
[17] = Cytotoxicity against human NCI60 cells assessed as growth inhibition at 10 uM after 24 hrs by SRB assay; conditions: NCI60, 24 h
MCF7 = test: Cytotoxicity against human MCF7 cells assessed as cell growth at 10^-6 M after 24 hrs by SRB assay; conditions: MCF7, 24 h, read-out: Activity
[18] = Cytotoxicity against human HOP92 cells assessed as cell growth at 10 uM after 24 hrs by SRB assay; conditions: HOP-92, 24 h, read-out: Activity
CCRF-CEM = test: Cytotoxicity against human CCRF-CEM cells assessed as cell growth at 10 uM after 24 hrs by SRB assay; conditions: read-out: Activity

Compound: O=C(Nc1cc(-c2cccnc2)nc(NCCCN2CCOCC2)n1)c1cc(Br)cc(C(F)(F)F)c1
- growth at 10 µM [1]: 52.8%
- growth at 10 µM [2]: 82.5%
- growth at 10 µM [3]: 54%
- growth at 1 µM [4]: 88%
- growth at 10 µM (SK-MEL-5): 3.78%
- growth at 100 µM (HT-29): -83%
- growth at 10 µM [5]: 48.5%
- growth at 1 µM (A498): 92%
- growth at 0.1 µM [6]: 100%
- growth at 10 µM [7]: 81.4%
- growth at 10 µM (SN12C): 67.2%
- growth at 10 µM [8]: -22.8%
- growth at 10 µM (NCI-H322M): 58.2%
- growth at 10 µM [9]: 42%
- growth at 0.01 µM [10]: 93%
- growth at 10 µM (EKVX): 77.4%
- growth at 10 µM (T47D): 46.4%
- growth at 10 µM (ACHN): 75.6%
- growth at 10 µM [11]: 92.3%
- growth at 10 µM (SR): 4.25%
- growth at 10 µM (Malme-3M): -7.83%
- growth at 10 µM [12]: 60.9%
- growth at 10 µM [13]: 72.1%
- growth at 0.01 µM [14]: 98%
- growth at 0.1 µM [15]: 102%
- growth at 10 µM [16]: 30.2%
- inhibition at 10 µM [17]: 57.2%
- growth at 1 µM (MCF7): 77%
- growth at 10 µM [18]: 34.6%
- growth at 10 µM (CCRF-CEM): 42.8%
